Source: publication PMC5321639, “Design and pharmacodynamics of recombinant NZ2114 histidine mutants with improved activity against methicillin-resistant Staphylococcus aureus” (AMB Express, 2017)
In brackets after ≈: the same amount, converted by molar mass. Where a SMILES comes first, the peptide text is derived from it. Bridges are numbered along the chain shown (N, C = ends).

How the values were obtained:
[1] = tested on: S. aureus ATCC43300; experiment: microbe, parasite or virus in culture; type: cell-based, Staphylococcus aureus; details: for MICc (MIC of the most effective combination): checkerboard
Experimental: The MIC values of four antibiotics (vancomycin, ampicillin, rifampicin and ciprofloxacin) to S. aureus ATCC43300 were tested as the MIC assay described above. The peptide solutions and antibiotics were diluted twofold with the final concentrations ranging from 1/16 to 8× MIC, and added into 96-well plates in a checkerboard fashion (White et al. [1996]). The results of combination were evaluated by calculating the fractional inhibitory concentration index (FICI) of each combination. FIC of H1, H2, H3=MIC of H1, H2, H3, respectively, in combination with antibiotic/MIC of H1, H2, H3 alone; FIC of antibiotics=MIC of antibiotic in combination with peptide/MIC of antibiotic alone; FICI = FIC of H1, H2, H3+ antibiotic, respectively. The result of interaction between two antimicrobial drugs was determined according to: FICI ≤ 0.5 refers to synergy, 0.5 < FICI ≤ 1 refers to additivity, 1 < FICI ≤ 4 refers to indifference, and FICI > 4 is defined as antagonism (Tsuji and Rybak [2006]).

[2] = tested on: S. aureus ATCC43300; experiment: Effect of proteinases on activity (MIC); type: cell-based, Staphylococcus aureus; details: 1:10 w/w proteinase:peptide, 37 °C for 3 h, then MIC assay
Experimental: (§1) The peptide solutions were diluted twofold with the range of final concentrations were 0.015–32 µg/ml (0.003–7.273 µM) for purified H1, H2, H3, H6, and H8. The test strains were grown in MHB medium at 37 °C to an OD600 of 0.4 and diluted to 1 × 10^5 CFU/ml. The 10 µl peptide and 90 µl cell suspension were added into each well. All assays were performed in triplicate. The antimicrobial activity of NZ2114 and vancomycin were tested as positive controls. The plates were incubated at 37 °C for 18–24 h. MIC was defined as the lowest peptide concentration of ones at which there was no visible growth (Tian et al. [2009]).
(§2) The effect of pH, temperature, NaCl concentration and proteinase on the activity of peptides was evaluated. Peptides were diluted twofold, then adjusted to a pH range from 2.0 to 10.0 and incubated at 37 °C for 4 h. The thermal stability of purified peptides was determined after 1-h incubation of peptides at 4, 20, 40, 60, 80 and 100 °C in deionized water, respectively. Aliquots of peptides were incubated in various proteinases solutions [pepsin (pH 2.0), trypsin (pH 8.0), proteinase K (pH 7.0)] at a ratio of 1:10, w/w (proteinase: peptide) at 37 °C for 3 h. For the ion stability, peptides were incubated in 50, 100, 200, 300, 400, 500 mM sodium chloride solutions, respectively. Other methods and conditions were prepared as the MIC assay described above (Li et al. [2015]; Qu et al. [2016]).

[3] = tested on: S. aureus ATCC43300; experiment: Effect of NaCl concentration on activity (MIC); type: cell-based, Staphylococcus aureus
Experimental: as §1, §2

[4] = tested on: S. aureus ATCC43300 (MRSA); experiment: Time-kill curve assay; type: cell-based, Staphylococcus aureus; details: for time for bacterial counts to decrease to 2 log10 CFU/ml (a 99.9% reduction): start 1 × 10^5 CFU/ml, 37 °C, triplicate
Experimental: Bacterial culture (S. aureus ATCC43300) was diluted to 1 × 10^5 CFU/ml and H1, H2, and H3 were added. […] The mixture was cultivated at 250 rpm, 37 °C. The 100-µl samples were taken from each flask at 0, 2, 4, 6, 8, 12 and 24 h of incubation, and serial dilutions of samples were plated to count visible colonies. Vancomycin was tested in the same way as a positive control and the culture without antimicrobial agent as a negative control (Xiong et al. [2011]). All experiments were performed in triplicate.

[5] = tested on: S. aureus ATCC43300; experiment: Effect of pH on activity (MIC); type: cell-based, Staphylococcus aureus; details: then MIC assay
Experimental: as §1, §2

[6] = tested on: S. aureus ATCC43300; experiment: Effect of temperature on activity (MIC); type: cell-based, Staphylococcus aureus; details: then MIC assay
Experimental: as §1, §2

[7] = tested on: S. aureus ATCC43300; experiment: Postantibiotic effect (PAE); type: cell-based, Staphylococcus aureus; details: 2 h exposure at 37 °C, 1 × 10^8 CFU/ml, drug removed by 1:10^3 dilution, mean ± SD, n = 3
Experimental: After 2 h, the drug was removed by diluting 1:10^3 into the MHB and incubated at 37 °C, 250 rpm. The sample was taken to plate counting every 1 h until the bacterial cultures become turbid. The PAE was calculated by the following formula: PAE = T − C, where T is the time needed for the count of CFU in the test culture to increase 1 log10 (10-fold) above the 0 h and C is the time needed for the count of CFU in the untreated control culture to increase 1 log10 above the 0 h (Giguère et al. [2012]).

[8] = conventional antibiotics; ref Pankuch and Appelbaum [2009b]; Pankuch et al. [2003]; Watanabe et al. [1997]; cited from earlier work
From the text: The PAE is a very important pharmacodynamics parameter in choosing of antibiotic dosage regimens in clinical use (Pankuch and Appelbaum [2009a]).

CC[C@H](C)[C@@H]1NC(=O)[C@H](CO)NC(=O)[C@H](CCCCN)NC(=O)[C@@H]2CSSC[C@@H](C(=O)N[C@@H](Cc3ccc(O)cc3)C(=O)O)NC(=O)[C@H](CCCCN)NC(=O)[C@@H]3CSSC[C@H](NC(=O)[C@H](CCCNC(=N)N)NC(=O)[C@H](CC(C)C)NC(=O)[C@H](CC(=O)O)NC(=O)[C@H](CC(=O)O)NC(=O)[C@H](CCC(=O)O)NC(=O)[C@H](CC(N)=O)NC(=O)[C@H](Cc4c[nH]c5ccccc45)NC(=O)[C@@H]4CCCN4C(=O)CNC(=O)[C@H](CC(N)=O)NC(=O)[C@@H](NC(=O)CNC(=O)[C@H](Cc4ccccc4)NC(=O)CN)CSSC[C@H](NC(=O)[C@H](Cc4ccc(O)cc4)NC(=O)CNC(=O)CNC(=O)[C@H](CCCCN)NC(=O)[C@H](Cc4ccc(O)cc4)NC(=O)CNC(=O)[C@H](CCCCN)NC1=O)C(=O)N[C@@H](C)C(=O)N[C@@H](CCCCN)C(=O)NCC(=O)NCC(=O)N[C@@H](Cc1ccccc1)C(=O)N[C@@H](C(C)C)C(=O)N3)C(=O)N[C@@H](CCCCN)C(=O)N[C@@H](CC(N)=O)C(=O)N[C@@H](Cc1c[nH]cn1)C(=O)N2 [H1] (H-GFGCNGPWNEDDLRCKNHCKSIKGYKGGYCAKGGFVCKCY-OH; disulfide 4-30, 15-37, 19-39; N-terminus and C-terminus assumed)
MICc (MIC of the most effective combination) ([1]; in combination with ampicillin): 0.014 µM | MICc (MIC of the most effective combination) ([1]; in combination with ciprofloxacin): 0.028 µM | MICc (MIC of the most effective combination) ([1]; in combination with rifampicin): 0.056 µM | MICc (MIC of the most effective combination) ([1]; in combination with vancomycin): 0.056 µM | MIC ([1]; drug alone, read-out: MICa (MIC of drug alone)): 0.056 µM | MIC after Proteinase K ([2]; proteinase K (pH 7.0)): 0.057 µM (≈ 0.251 µg/mL) | MIC after Trypsin ([2]; trypsin (pH 8.0)): 0.057 µM (≈ 0.251 µg/mL) | MIC in 50 mM NaCl ([3]; incubated in 50 mM sodium chloride solution): 0.057 µM (≈ 0.251 µg/mL) | MIC in 100 mM NaCl ([3]; incubated in 100 mM sodium chloride solution): 0.057 µM (≈ 0.251 µg/mL) | MIC in 200 mM NaCl ([3]; incubated in 200 mM sodium chloride solution): 0.057 µM (≈ 0.251 µg/mL) | MIC in 300 mM NaCl ([3]; incubated in 300 mM sodium chloride solution): 0.057 µM (≈ 0.251 µg/mL) | MIC in 400 mM NaCl ([3]; incubated in 400 mM sodium chloride solution): 0.057 µM (≈ 0.251 µg/mL) | MIC in 500 mM NaCl ([3]; incubated in 500 mM sodium chloride solution): 0.057 µM (≈ 0.251 µg/mL) | incubation time after which regrowth occurred ([4]; 1× MIC): 8 h | time for bacterial counts to decrease to 2 log10 CFU/ml (a 99.9% reduction) ([4]; 1× MIC): 6 h | incubation time after which regrowth occurred ([4]; 2× MIC): 12 h | bacterial counts at 24 h after regrowth ([4]; 2× MIC, 24 h): 3.40 log10 CFU/ml | time for bacterial counts to decrease to 2 log10 CFU/ml (a 99.9% reduction) ([4]; 2× MIC): 1.5 h | time for bacterial counts to decrease to 2 log10 CFU/ml (a 99.9% reduction) ([4]; 4× MIC): 1 h | MIC after incubation at pH2 ([5]; pH 2, 37 °C for 4 h): 0.057 μM | MIC after incubation at pH4 ([5]; pH 4, 37 °C for 4 h): 0.057 μM | MIC after incubation at pH6 ([5]; pH 6, 37 °C for 4 h): 0.057 μM | MIC after incubation at pH8 ([5]; pH 8, 37 °C for 4 h): 0.057 μM | MIC after incubation at 4 °C ([6]; 1 h at 4 °C in deionized water): 0.057 µM (≈ 0.251 µg/mL) | MIC after incubation at 20 °C ([6]; 1 h at 20 °C in deionized water): 0.057 µM (≈ 0.251 µg/mL) | MIC after incubation at 40 °C ([6]; 1 h at 40 °C in deionized water): 0.057 µM (≈ 0.251 µg/mL) | MIC after incubation at 60 °C ([6]; 1 h at 60 °C in deionized water): 0.057 µM (≈ 0.251 µg/mL) | MIC after incubation at 80 °C ([6]; 1 h at 80 °C in deionized water): 0.057 µM (≈ 0.251 µg/mL) | PAE ([7]; 1× MIC): 0.90 ± 0.04 h | PAE ([7]; 2× MIC): 2.94 ± 0.07 h

NCC[C@H](O)C(=O)N[C@@H]1C[C@H](N)[C@@H](O[C@H]2O[C@H](CN)CC[C@H]2N)[C@H](O)[C@H]1O[C@H]1O[C@H](CO)[C@@H](O)[C@H](N)[C@H]1O [arbekacin]
PAE [8]: 3.0 to 3.2 h

CN(C)c1cc(NC(=O)CNC(C)(C)C)c(O)c2c1C[C@H]1C[C@H]3[C@H](N(C)C)C(O)=C(C(N)=O)C(=O)[C@@]3(O)C(O)=C1C2=O [tigecycline]
PAE [8]: 3.2 h

daptomycin
PAE [8]: 2.0 h
